Results: the supplement of paper PMC11061612

Tests used:
[1] = tested on: SIMA (Neuroblastoma); assay: Bliss excess, mean over the matrix (fraction); higher = more synergy
In short: (§1)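 Bliss excess equals the observed combination effect minus the expected value EA + EB − EA·EB, where EA and EB are the effects of each agent alone. Combination Emax is the second-highest inhibition within the matrix. Inhibition was scaled from CellTiter-Glo 2.0 luminescence, with 0 set by vehicle wells and 1 by blank wells, after 72 hours of two-drug dosing of cells plated in 1536-well plates.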

[2] = tested on: EN (Endometrial Carcinoma); assay: as above
In short: as §1

[3] = tested on: K5 (Thyroid Gland Carcinoma); assay: as above
In short: as §1

[4] = tested on: SW1271 (Small Cell Lung Carcinoma); assay: as above
In short: as §1

[5] = tested on: SW1116 (Colorectal Carcinoma); assay: as above
In short: as §1

[6] = tested on: NCI-H2795 (Mesothelioma); assay: as above
In short: as §1

[7] = tested on: RH-18 (Rhabdomyosarcoma); assay: as above
In short: as §1

[8] = tested on: HO-1-u-1 (Oral Cavity Carcinoma); assay: as above
In short: as §1

[9] = tested on: NCI-H2461 (Mesothelioma); assay: as above
In short: as §1

[10] = tested on: PCI-30 (Head and Neck Carcinoma); assay: as above
In short: as §1

[11] = tested on: SIMA (Neuroblastoma); assay: combination Emax (second highest fraction inhibited in the dose matrix, 72 h); higher = more inhibition; extreme values may be limits of the assay
In short: as §1

[12] = tested on: RH-18 (Rhabdomyosarcoma); assay: as above
In short: as §1

Compound | Bliss excess [1] | Bliss excess [2] | Bliss excess [3] | Bliss excess [4] | Bliss excess [5] | Bliss excess [6] | Bliss excess [7] | Bliss excess [8] | Bliss excess [9] | Bliss excess [10] | combination Emax [11] | combination Emax [12]
COc1cc2c(cc1OCCCCCOc1cc3c(cc1OC)C(=O)N1C=C(C)C[C@H]1C=N3)N=C[C@@H]1CC(C)=CN1C2=O [SG3199] + O=C(c1cc(Cc2n[nH]c(=O)c3ccccc23)ccc1F)N1CCN(C(=O)C2CC2)CC1 [Olaparib] (first compound max 0.001 µM, 7x7, partner max 10 µM) | -0.0214 | -0.0456 | -0.0105 | -0.0276 | -0.0356 | -0.0524 | -0.0378 | -0.0205 | -0.0652 | -0.0328 | 0.421 | 0.174
CN(C)CCCOc1ccc(-c2ccc3ncc4c(c3c2)n(C2CCOCC2)c(=O)n4C)cn1 [AZD0156] + C=CCn1c(=O)c2cnc(Nc3ccc(N4CCN(C)CC4)cc3)nc2n1-c1cccc(C(C)(C)O)n1 [AZD1775] (first compound max 1 µM, partner max 1 µM) | -0.006 | -0.0767 | -0.0003 | -0.0895 | -0.0336 | -0.0131 | -0.0645 | 0.0563 | -0.0451 | -0.0356 | 0.873 | 0.337
COc1cccc(OCCCN)c1-c1cc(Nc2cnc(C#N)cn2)n[nH]1 [Prexasertib] + C[C@@H]1COCCN1C2=NC(=NC(=C2)C3(CC3)[S@](=N)(=O)C)C4=C5C=CNC5=NC=C4 [AZD6738] (first compound max 1 µM, 7x7, partner max 10 µM) | -0.0198 | -0.0416 | 0.0037 | -0.0337 | 0.0637 | 0.0361 | 0.076 | -0.0013 | -0.0344 | 0.003 | 0.989 | 0.475
Cc1cc2ncnn2cc1Nc1ncc2c(n1)n(C1CCOCC1)c(=O)n2C [AZD7648] + CN(C)CCCOc1ccc(-c2ccc3ncc4c(c3c2)n(C2CCOCC2)c(=O)n4C)cn1 [AZD0156] (first compound max 10 µM, 7x7, partner max 1 µM) | 0.0504 | -0.0396 | -0.0226 | 0.0567 | -0.0064 | -0.025 | -0.0092 | -0.0542 | -0.0442 | -0.0411 | 0.312 | 0.333
C[C@@H]1COCCN1c1cc(C2([S@](C)(=N)=O)CC2)nc(-c2ccnc3[nH]ccc23)n1 [AZD6738] + O=C(c1cc(Cc2n[nH]c(=O)c3ccccc23)ccc1F)N1CCN(C(=O)C2CC2)CC1 [Olaparib] (first compound max 10 µM, 7x7, partner max 10 µM) | -0.0498 | -0.0479 | -0.0175 | -0.016 | -0.0228 | 0.053 | 0.012 | 0.0528 | -0.0214 | -0.052 | 0.642 | 0.406
CCN(CCO)CCCOc1ccc2c(Nc3cc(CC(=O)Nc4cccc(F)c4)[nH]n3)ncnc2c1 [AZD2811] + C[C@@H]1COCCN1C2=NC(=NC(=C2)C3(CC3)[S@](=N)(=O)C)C4=C5C=CNC5=NC=C4 [AZD6738] (first compound max 1 µM, 7x7, partner max 10 µM) | -0.0332 | -0.0866 | -0.086 | -0.0829 | -0.0234 | -0.0517 | -0.0336 | -0.023 | -0.0728 | -0.0516 | 0.766 | 0.344
CN(C)CCCOc1ccc(-c2ccc3ncc4c(c3c2)n(C2CCOCC2)c(=O)n4C)cn1 [AZD0156] + CCN(CCO)CCCOc1ccc2c(Nc3cc(CC(=O)Nc4cccc(F)c4)[nH]n3)ncnc2c1 [AZD2811] (first compound max 1 µM, 7x7, partner max 1 µM) | -0.0085 | 0.0456 | -0.0334 | -0.0322 | -0.0339 | 0.0025 | -0.0253 | 0.0299 | -0.0293 | -0.013 | 0.131 | 0.136
COc1cccc2c1C(=O)c1c(O)c3c(c(O)c1C2=O)C[C@@](O)(C(=O)CO)C[C@@H]3O[C@H]1C[C@H](N)[C@H](O)[C@H](C)O1 [Doxorubicin] + Cc1cc2ncnn2cc1Nc1ncc2c(n1)n(C1CCOCC1)c(=O)n2C [AZD7648] (first compound max 1 µM, 7x7, partner max 10 µM) | 0.0859 | 0.0108 | 0.0319 | 0.0452 | -0.0046 | 0.0227 | 0.0463 | 0.0091 | -0.0108 | 0.006 | 0.854 | 0.76
COc1cccc(OCCCN)c1-c1cc(Nc2cnc(C#N)cn2)n[nH]1 [Prexasertib] + CN(C)CCCOc1ccc(-c2ccc3ncc4c(c3c2)n(C2CCOCC2)c(=O)n4C)cn1 [AZD0156] (first compound max 1 µM, 7x7, partner max 1 µM) | 0.0111 | -0.0459 | -0.0339 | -0.0183 | -0.0253 | 0.05 | -0.0006 | 0.0251 | -0.0647 | -0.0637 | 1 | 0.426
